# Data as given in US20180360040A1, “PESTICIDAL COMPOUNDS AND THEIR USES” (priority 2015, published 2018).
# What was measured:
# Type in all cases: in vivo
# [1] = system: Diabrotica balteata; assay: Example B1: Diabrotica balteata (corn root worm), sprayed maize sprouts; details: 96 h, read-out: effect in at least one of the two categories (mortality or growth inhibition)
# Procedure: Example B1: Diabrotica balteata (Corn Root Worm)
# Maize sprouts placed onto an agar layer in 24-well microtiter plates were treated with aqueous test solutions prepared from 10,000 ppm DMSO stock solutions by spraying. After drying, the plates were infested with L2 larvae (6 to 10 per well). The samples were assessed for mortality and growth inhibition in comparison to untreated samples 4 days after infestation.
# [2] = system: Aedes aegypti; assay: Example B11: insecticide impregnated polymer surfaces (LDPE sheets), Aedes aegypti; details: 2% active ingredient in LDPE sheets, after 48 h and/or 24 h
# Text: (§1) Example B11: Evaluation of Insecticide Impregnated Polymer Surfaces
# (§2) Preparation of polymeric sheets: Compound P1.17 was impregnated into LDPE (low density polyethylene) by mixing the respective polymer with the compound at high temperatures and the resultant polymeric material was then mould into thin discs or plaques.
# (§3) Twenty four hours prior to the relevant assessment intervals, three to five day old non-blood fed adult mosquitoes were taken from the culture and lightly anaesthetised with carbon dioxide. Ten females were selected and placed in a 250 ml plastic cup, retained with a net lid, provided with a 10% sucrose solution soaked in a cotton wool bung and held under culturing environmental conditions.
# (§4) After twenty four hours, impregnated polymer sheets (measuring about 150 mm in diameter and about 0.1 mm in thickness) were removed from storage and wrapped around the glazed side of an 11 cm ceramic tile and held in place with an elastic band. The age of the polymer sheets used were either 1-2 weeks or 10 weeks old. A cup of the pre-selected mosquitoes were again lightly anaesthetised with carbon dioxide and transferred from the holding cup to the base of a 9 cm plastic Petri dish. The relevant impregnated polymer sheet was placed over the Petri dish and held in place with an elastic band. Once the mosquitoes had recovered from the anaesthetic, ca. 1 minute, the impregnated polymer sheet was placed on a holding rack, such that treated side was at an angle of 60° to the horizontal.
# (§5) After one hour an assessment of mosquito knockdown was made. A mosquito was said to be knocked down if it was unable to right itself once it had fallen over. The mosquitoes were lightly anaesthetised again, and removed from the Petri dish exposure chamber and returned to the holding cups. The mosquitoes were supplied with a 10% sucrose solution soaked in a cotton wool bung and held under culturing environmental conditions. An assessment of mortality was made 24 hours and 48 hours after exposure. A mosquito was said to be dead if it is unable to right itself once it had fallen over.
# [3] = system: Plutella xylostella; assay: Example B4 (second): Plutella xylostella (diamond back moth), artificial diet; details: 120 h, application rate 200 ppm, L2 larvae, 5 days after infestation, read-out: effect in at least one of the two categories (mortality or growth inhibition)
# Procedure: Example B4: Plutella xylostella (Diamond Back Moth)
# 24-well microtiter plates with artificial diet were treated with aqueous test solutions prepared from 10,000 ppm DMSO stock solutions by pipetting. After drying, the plates were infested with L2 larvae (10 to 15 per well). The samples were assessed for mortality and growth inhibition in comparison to untreated samples 5 days after infestation.
# [4] = system: Anopheles stephensi; assay: Example B11: insecticide impregnated polymer surfaces (LDPE sheets), Anopheles stephensi; details: 2% active ingredient in LDPE sheets, after 48 h and/or 24 h
# Text: as §1, §2, §3, §4, §5
# [5] = system: Myzus persicae; assay: Example B4: Myzus persicae (green peach aphid), intrinsic activity; details: 120 h, test rate 12 ppm, 5 days after infestation
# Text: Example B4: Myzus persicae (Green Peach Aphid): Intrinsic Activity
# Test compounds prepared from 10,000 ppm DMSO stock solutions were applied by pipette into 24-well microtiter plates and mixed with sucrose solution. The plates were closed with a stretched Parafilm. A plastic stencil with 24 holes was placed onto the plate and infested pea seedlings were placed directly on the Parafilm. The infested plate was closed with a gel blotting paper and another plastic stencil and then turned upside down. The samples were assessed for mortality 5 days after infestation.
# [6] = system: Spodoptera littoralis; assay: Example B5: Spodoptera littoralis (Egyptian cotton leaf worm), sprayed cotton leaf discs; details: foliar, 72 h, application rate 200 ppm, L1 larvae, 3 days after infestation, read-out: control (mortality, anti-feeding effect, growth inhibition)
# Procedure: Example B5: Spodoptera littoralis (Egyptian Cotton Leaf Worm)
# Cotton leaf discs were placed onto agar in 24-well microtiter plates and sprayed with aqueous test solutions prepared from 10,000 ppm DMSO stock solutions. After drying the leaf discs were infested with five L1 larvae. The samples were assessed for mortality, anti-feeding effect, and growth inhibition in comparison to untreated samples 3 days after infestation. Control of Spodoptera littoralis by a test sample is given when at least one of the categories mortality, anti-feedant effect, and growth inhibition is higher than the untreated sample.
# [7] = system: Tetranychus urticae; assay: Example B7: Tetranychus urticae (two-spotted spider mite), feeding/contact activity; details: 192 h, application rate 200 ppm, mixed population (mobile stages), 8 days after infestation
# Procedure: Example B7: Tetranychus urticae (Two-Spotted Spider Mite): Feeding/Contact Activity
# Bean leaf discs on agar in 24-well microtiter plates were sprayed with aqueous test solutions prepared from 10,000 ppm DMSO stock solutions. After drying the leaf discs were infested with a mite population of mixed ages. The samples were assessed for mortality on mixed population (mobile stages) 8 days after infestation.
# [8] = system: Euschistus heros; assay: Example B2: Euschistus heros (neotropical brown stink bug), sprayed soybean leaves; details: 120 h, application rate 200 ppm, N2 nymphs, 5 days after infestation, read-out: effect in at least one of the two categories (mortality or growth inhibition)
# Procedure: Example B2: Euschistus heros (Neotropical Brown Stink Bug)
# Soybean leaves on agar in 24-well microtiter plates were sprayed with aqueous test solutions prepared from 10,000 ppm DMSO stock solutions. After drying the leaves were infested with N2 nymphs. The samples were assessed for mortality and growth inhibition in comparison to untreated samples 5 days after infestation.
# [9] = system: Spodoptera littoralis; assay: Example B6: Spodoptera littoralis (Egyptian cotton leaf worm), root uptake by lettuce from agar; details: 144 h, test rate 12.5 ppm, 6 days after infestation, read-out: effect in at least one of the three categories (mortality, anti-feeding, or growth inhibition)
# Text: Example B6: Spodoptera littoralis (Egyptian Cotton Leaf Worm)
# Test compounds were applied by pipette from 10,000 ppm DMSO stock solutions into 24-well plates and mixed with agar. Lettuce seeds were placed onto the agar and the multi well plate was closed by another plate which contained also agar. After 7 days the compound was absorbed by the roots and the lettuce grew into the lid plate. The lettuce leaves were then cut off into the lid plate. Spodoptera eggs were pipetted through a plastic stencil onto a humid gel blotting paper and the lid plate was closed with it. The samples were assessed for mortality, anti-feedant effect and growth inhibition in comparison to untreated samples 6 days after infestation.
SMILES,percent control (mortality or growth inhibition) at 200 ppm [1] [%],percent effect (mortality or growth inhibition) at 200 ppm [3] [%],mortality at 12 ppm [5] [%],mortality at 200 ppm [6] [%],mortality at 200 ppm [7] [%],further results
"CN1OC(c2ccccc2)(C2CC2)N=C1NC(C)(C)C (stereo not shown) [Compound P1.17, N-tert-Butyl-5-cyclopropyl-2-methyl-5-phenyl-1,2,4-oxadiazol-3-amine]",≥ 80,≥ 80,≥ 80,≥ 80,,control of Aedes Aegypti ([2]; sheet after 1 week): at least 80%; control of Aedes Aegypti ([2]; sheet after 2 weeks): at least 80%; control of Aedes Aegypti ([2]; sheet after 10 weeks): at least 80%; control of Anopheles stephensi ([4]; sheet after 1 week): at least 80%; control of Anopheles stephensi ([4]; sheet after 2 weeks): at least 80%; control of Anopheles stephensi ([4]; sheet after 10 weeks): at least 80%
"CN1OC(c2ccccc2)(C2CC2)N=C1N(C)C(C)(C)C (stereo not shown) [Compound P1.18, N-tert-Butyl-5-cyclopropyl-N,2-dimethyl-5-phenyl-1,2,4-oxadiazol-3-amine]",≥ 80,,,,,
"CN1OC(c2ccc(F)cc2)(C2CC2)N=C1NC(C)(C)C(F)(F)F (stereo not shown) [Compound P1.88, 5-Cyclopropyl-5-(4-fluorophenyl)-2-methyl-N-(2,2,2-trifluoro-1,1-dimethyl-ethyl)-1,2,4-oxadiazol-3-amine]",≥ 80,≥ 80,≥ 80,≥ 80,≥ 80,"percent effect (mortality or growth inhibition) at 200 ppm [8]: ≥ 80%; percent effect (mortality, anti-feeding or growth inhibition) at 12.5 ppm [9]: ≥ 80%"
"CCC1(c2ccccc2)N=C(NC(C)(C)C)N(C)O1 (stereo not shown) [Compound P1.94, N-tert-Butyl-5-ethyl-2-methyl-5-phenyl-1,2,4-oxadiazol-3-amine]",≥ 80,,,,≥ 80,
"CN1OC(c2ccc(C#N)cc2)(C2CC2)N=C1NC(C)(C)C (stereo not shown) [Compound P1.136, 4-[3-(tert-butylamino)-5-cyclopropyl-2-methyl-1,2,4-oxadiazol-5-yl]benzonitrile]",≥ 80,,,,,
"CN1OC(c2ccc(-c3ccc(F)cc3)cc2)(C2CC2)N=C1NC(C)(C)C (stereo not shown) [Compound P1.137, N-tert-butyl-5-cyclopropyl-5-[4-(4-fluorophenyl)phenyl]-2-methyl-1,2,4-oxadiazol-3-amine]",≥ 80,,,,,
